Laboratory results from ChEMBL document CHEMBL3397002, “Design, synthesis, and bioevaluation of paeonol derivatives as potential anti-HBV agents” (Eur J Med Chem, 2015).

How the values were obtained:
[1] = Cytotoxicity against human HepG2(2.2.15) cells assessed as decrease in cell viability after 72 hrs by MTS assay; assay type: cell-based; conditions: read-out: TC50
Hepatitis B virus [2] = assay: Decrease in HBV viral DNA replication in human HepG2(2.2.15) cells at 0.75 to 3 uM after 72 hrs by real-time PCR analysis; assay type: functional, organism-based; conditions: HepG2 2.2.15, 72 h
[3] = Selectivity index, ratio of TC50 for human HepG2(2.2.15) cells to IC50 for decrease in HBV viral DNA replication in human HepG2(2.2.15) cells
Hepatitis B virus [4] = assay: Decrease in hepatitis B viral surface antigen HBsAg secretion in human HepG2(2.2.15) cells at 0.75 to 3 uM after 72 hrs by EIA analysis; assay type: functional, organism-based; conditions: HepG2 2.2.15, 72 h
Hepatitis B virus [5] = assay: Decrease in hepatitis B viral surface antigen HBeAg secretion in human HepG2(2.2.15) cells at 0.75 to 3 uM after 72 hrs by EIA analysis; assay type: functional, organism-based; conditions: HepG2 2.2.15, 72 h
[6] = Selectivity index, ratio of TC50 for human HepG2(2.2.15) cells to IC50 for decrease in hepatitis B viral surface antigen HBsAg secretion in human HepG2(2.2.15) cells
[7] = Selectivity index, ratio of TC50 for human HepG2(2.2.15) cells to IC50 for decrease in hepatitis B viral surface antigen HBeAg secretion in human HepG2(2.2.15) cells
[8] = Effect on cellular morphology of human HepG2(2.2.15) cells at 0.75 to 3 uM after 72 hrs by Giemsa staining method; assay type: ADME, cell-based; conditions: hepg2 2.2.15, 72 h
[9] = Effect on cell cycle of human HepG2(2.2.15) cells assessed as cells at G1 phase at 0.75 to 3 uM after 72 hrs by propidium iodide staining based flow cytometry; assay type: ADME; conditions: hepg2 2.2.15, 72 h
[10] = Effect on cell cycle of human HepG2(2.2.15) cells assessed as cells at G2M phase at 0.75 to 3 uM after 72 hrs by propidium iodide staining based flow cytometry; assay type: ADME; conditions: hepg2 2.2.15, 72 h
Hepatitis B virus [11] = assay: Decrease in level of HBV 3.5-kb precore/pregenomic and 2.4-/2.1-kb surface antigen RNA in human HepG2(2.2.15) cells after 48 hrs by Northern blot analysis; assay type: functional, organism-based

O=c1[nH]cc(F)c(=O)[nH]1 [FLUOROURACIL]
CC50 at 72 h [1]: 21.7 µM

Nc1ccn([C@@H]2CS[C@H](CO)O2)c(=O)n1 [LAMIVUDINE]
CC50 at 72 h [1]: 352 µM
IC50 (Hepatitis B virus [2]): 7.63 µM
Selectivity Index [3]: 46.13

COc1ccc(C(C)=O)c(OS(=O)(=O)c2ccc(C)cc2)c1
CC50 at 72 h [1]: 23.7 µM
IC50 (Hepatitis B virus [4]): 3.18 µM
IC50 (Hepatitis B virus [5]): 6.83 µM
IC50 (Hepatitis B virus [2]): 1.04 µM
Selectivity Index [6]: 7.46
Selectivity Index [7]: 3.47
Selectivity Index [3]: 22.81

COc1ccc(C(C)=O)c(OS(=O)(=O)c2ccccc2)c1
CC50 at 72 h [1]: 55.4 µM
IC50 (Hepatitis B virus [4]): 7.3 µM
IC50 (Hepatitis B virus [5]): 16.5 µM
IC50 (Hepatitis B virus [2]): 1.86 µM
Selectivity Index [6]: 7.58
Selectivity Index [7]: 3.36
Selectivity Index [3]: 29.77

COc1ccc(S(=O)(=O)Oc2cc(OC)ccc2C(C)=O)cc1
CC50 at 72 h [1]: 17.2 µM
IC50 (Hepatitis B virus [4]): 1.55 µM
IC50 (Hepatitis B virus [5]): 2.24 µM
Activity [8]: Non-toxic
Activity [9]: Non-toxic
Activity [10]: Non-toxic
IC50 (Hepatitis B virus [2]): 0.36 µM
inhibition (Hepatitis B virus [11]): Dose-dependent effect
Selectivity Index [6]: 11.09
Selectivity Index [7]: 7.67
Selectivity Index [3]: 47.75

COc1ccc(C(C)=O)c(OS(=O)(=O)c2ccc(Br)cc2)c1
CC50 at 72 h [1]: 10.1 µM
IC50 (Hepatitis B virus [4]): 2.01 µM
IC50 (Hepatitis B virus [5]): 1.86 µM
IC50 (Hepatitis B virus [2]): 0.44 µM
Selectivity Index [6]: 4.99
Selectivity Index [7]: 5.42
Selectivity Index [3]: 22.91

COc1ccc(C(C)=O)c(OS(=O)(=O)c2ccc([N+](=O)[O-])cc2)c1
CC50 at 72 h [1]: 10.9 µM
IC50 (Hepatitis B virus [4]): 1.77 µM
IC50 (Hepatitis B virus [5]): 4.64 µM
IC50 (Hepatitis B virus [2]): 1.15 µM
Selectivity Index [6]: 6.17
Selectivity Index [7]: 2.35
Selectivity Index [3]: 9.5

COc1ccc(C(C)=O)c(OS(=O)(=O)c2ccc(N)cc2)c1
CC50 at 72 h [1]: 68.8 µM
IC50 (Hepatitis B virus [4]): 21.7 µM
IC50 (Hepatitis B virus [5]): 72.5 µM
Selectivity Index [6]: 3.17
Selectivity Index [7]: 0.95

COc1ccc(C(C)=O)c(OS(=O)(=O)c2ccc(Cl)cc2)c1
CC50 at 72 h [1]: 13.8 µM
IC50 (Hepatitis B virus [4]): 2.83 µM
IC50 (Hepatitis B virus [5]): 4.2 µM
IC50 (Hepatitis B virus [2]): 0.57 µM
Selectivity Index [6]: 4.87
Selectivity Index [7]: 3.28
Selectivity Index [3]: 24.16

COc1ccc(C(C)=O)c(OS(=O)(=O)c2ccc(F)cc2)c1
CC50 at 72 h [1]: 53.7 µM
IC50 (Hepatitis B virus [4]): 5.05 µM
IC50 (Hepatitis B virus [5]): 11.2 µM
IC50 (Hepatitis B virus [2]): 2.71 µM
Selectivity Index [6]: 10.64
Selectivity Index [7]: 4.81
Selectivity Index [3]: 19.82
